Measurements published in patent publication US20260177565A1, “INHIBITOR FOR GLUCOSE UPTAKE INTO RED BLOOD CELLS, SUPPRESSANT FOR GLUCOSE CONCENTRATION REDUCTION IN BLOOD-COLLECTING TUBE, AND BLOOD-COLLECTING TUBE INCLUDING SAME” (THE UNIVERSITY OF TOKYO, priority 2022, published 2026).
Entries after “also recorded” stand apart in the source; their conditions may differ.

System: red blood cells
Experiment: Fluorescently labeled glucose uptake into red blood cells (Glucose Uptake Assay Kit-Green)
Type: cell-based, human
Conditions: for uptake of fluorescently labeled glucose / fluorescence in red blood cells (in words): concentrations as in Table 5; for Fluorescence intensity of fluorescently labeled glucose uptake into red blood cells: control (PBS(−)) 613.5
Protocol: Blood collected in the blood collection tube B from a volunteer subject was centrifuged at 3000 rpm for 5 minutes within 10 minutes, and plasma was discarded to obtain fresh red blood cells. The red blood cells were washed with PBS(−) and used for the following tests (washed red blood cells).
The test substance was dissolved in the amount described in Table 5 with respect to 1 mL of PBS(−). On the other hand, 5 μL of washed red blood cells immersed in PBS(−) and allowed to stand for about 15 minutes were taken out into a test tube, 150 μL each of a test substance solution was added thereto, and this was heated at 37° C. for 15 minutes. Then, 2 μL of a dissolved probe reagent in a glucose uptake assay kit (Glucose Uptake Assay Kit-Green, Dojindo Laboratories Co., Ltd.) was added and heated at 37° C. for 45 minutes. The probe reagent was fluorescently labeled glucose (fluorescently labeled glucose), and a powdered reagent dissolved in 20 μL of DMSO was used.
After the immersion in the reagents of the glucose uptake assay was completed, red blood cells were washed 3 times with 150 μL of a cooled 50-fold diluted WI solution (prepared by diluting the solution provided with the assay reagent 50-fold with PBS(−) at 4° C.), and 150 μL of a cooled 50-fold diluted WI solution was further added and stirred, and then 20 μL of the solution was dropped onto a glass slide and spread over the slide. Slides were photographed with fluorescence microscope.
The remaining red blood cells were centrifuged to discard the supernatant, and 125 μL of water for injection was added to the remaining lower red blood cells to cause hemolysis. The fluorescence intensity of 100 μL of the supernatant obtained by centrifugation was measured using a microplate reader (MTP-800Lab, Corona Electric Co., Ltd.). The measurement conditions were an excitation light wavelength of […] and a measurement fluorescence wavelength of […].

Compound | uptake of fluorescently labeled glucose / fluorescence in red blood cells (in words) | Fluorescence intensity of fluorescently labeled glucose uptake into red blood cells (test substance 1.25 mg/mL in PBS(−)) | Fluorescence intensity of fluorescently labeled glucose uptake into red blood cells (test substance 1.5 mg/mL in PBS(−)) | Fluorescence intensity of fluorescently labeled glucose uptake into red blood cells (test substance 2 mg/mL in PBS(−))
Nc1ncnc2c1ncn2[C@@H]1O[C@H](COP(=O)(O)OP(=O)(O)OP(=O)(O)O)[C@@H](O)[C@H]1O [ATP, adenosine triphosphate] | the degree of suppression of uptake was much lower than that of inosine | 163.3 | – | –
[F-].[Na+] [Sodium fluoride, sodium fluoride] | the degree of suppression of uptake was much lower than that of inosine | – | 255.1 | –
OC[C@H]1O[C@@H](n2cnc3c(O)ncnc32)[C@H](O)[C@@H]1O [Inosine, inosine] | fluorescence in red blood cells was hardly observed; also recorded: strong inhibitory effect on the uptake of glucose in red blood cells | – | – | 6.4
